Source: patent US4316889A, “Novel peptidyl-arginine aldehyde derivatives and process for the preparation thereof” (Richter Gedeon Vegyeszeti Gyar Rt., priority 1979, dated 1982)
Square brackets hold non-standard residues; d marks the D form. Peptide text beside a SMILES is read from it. * marks the point of attachment. d(aIle) = CC[C@H](C)[C@@H](N)C(=O)O; Bz = O=C(c1ccccc1)*

What was measured:
[1] = target: plasmin (Homo sapiens, UniProt P00747); settings: literature (Kawamura et al.; Umezawa); cited from earlier work
[2] = tested on: trypsin; settings: literature (Kawamura et al.; Umezawa); cited from earlier work
[3] = target: T1, papain (Carica papaya, UniProt P00784); settings: literature (Kawamura et al.; Umezawa); cited from earlier work
T1 sequence (P00784 134-345): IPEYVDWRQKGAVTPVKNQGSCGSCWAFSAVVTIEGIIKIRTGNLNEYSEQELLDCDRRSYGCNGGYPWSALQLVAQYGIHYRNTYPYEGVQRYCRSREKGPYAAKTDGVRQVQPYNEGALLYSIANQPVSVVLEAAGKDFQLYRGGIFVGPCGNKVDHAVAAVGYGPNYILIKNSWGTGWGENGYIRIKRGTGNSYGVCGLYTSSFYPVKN

[4] = target: thrombin (Homo sapiens, UniProt P00734); settings: Hungarian Patent No. 169,870; cited from earlier work
[5] = target: T2, US Standard Human Thrombin (Homo sapiens, UniProt P00734); assay: Antithrombin activity: amount of drug for tenfold increase of the thrombin-time of fibrinogen; type: biochemical; settings: for Amount of drug required for tenfold increase of thrombin-time following dissolution of peptide, 0 hour: 0 hour after dissolution in TRIS/HCl buffer pH=7.4, bovine fibrinogen, thrombin 5 U/ml; for relative activity (ra), 20 hours: 20 hours in TRIS/HCl buffer, relative to H-D-Phe-Pro-Arg(COOH)-H at 0 hour = 100; for Amount of drug required for tenfold increase of thrombin-time following dissolution of peptide, 20 hours: 20 hours standing in TRIS/HCl buffer pH=7.4; for change of antithrombin potency upon standing in solution: TRIS/HCl buffer, pH=7.4
T2 construct: US Standard Human Thrombin; purchased NIH, Bethesda, Maryland, USA
Protocol: Antithrombin activity is defined by the amount of drug required for a tenfold increase of the thrombin-time of fibrinogen (thrombintime: time of clotting induced by thrombin).
Antithrombin activities were assayed in the following system:
0.5 percent bovine fibrinogen (0.2 ml). in 0.9 percent sodium chloride solution, peptide in TRIS/HCl buffer (0.1 ml., pH=7.4), and US Standard Human Thrombin (0.1 ml.) (NIH, Bethesda, Maryland, USA; 5 U/ml.). The clotting time of the system devoid of peptide is 15 seconds.

[6] = tested on: thrombin-time; assay: In vivo antithrombin activity after oral administration to dogs, measured in a Thromboelastograph; set-up: species or system dog; settings: 50 mg./kg., for a period of two hours
Description: (§1) This effect is substantial not only at intravenous, intramuscular and subcutaneous but also at oral administration.

[7] = tested on: thrombin; assay: In vivo trials of antithrombin activity on five species; settings: mouse, rat, rabbit, dog, monkey; intravenous, intramuscular, subcutaneous and oral administration
Description: as §1

Chain of plasmin (P00747 581-810 limits assumed, species assumed): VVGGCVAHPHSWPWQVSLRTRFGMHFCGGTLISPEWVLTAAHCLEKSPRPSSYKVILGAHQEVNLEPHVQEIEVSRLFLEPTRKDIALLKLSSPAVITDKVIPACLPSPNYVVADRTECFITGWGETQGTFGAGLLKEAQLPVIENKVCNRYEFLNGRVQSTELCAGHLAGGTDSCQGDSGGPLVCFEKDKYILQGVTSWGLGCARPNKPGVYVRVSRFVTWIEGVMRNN
Chain of plasmin (P00747 97-580 partner limits assumed, species assumed): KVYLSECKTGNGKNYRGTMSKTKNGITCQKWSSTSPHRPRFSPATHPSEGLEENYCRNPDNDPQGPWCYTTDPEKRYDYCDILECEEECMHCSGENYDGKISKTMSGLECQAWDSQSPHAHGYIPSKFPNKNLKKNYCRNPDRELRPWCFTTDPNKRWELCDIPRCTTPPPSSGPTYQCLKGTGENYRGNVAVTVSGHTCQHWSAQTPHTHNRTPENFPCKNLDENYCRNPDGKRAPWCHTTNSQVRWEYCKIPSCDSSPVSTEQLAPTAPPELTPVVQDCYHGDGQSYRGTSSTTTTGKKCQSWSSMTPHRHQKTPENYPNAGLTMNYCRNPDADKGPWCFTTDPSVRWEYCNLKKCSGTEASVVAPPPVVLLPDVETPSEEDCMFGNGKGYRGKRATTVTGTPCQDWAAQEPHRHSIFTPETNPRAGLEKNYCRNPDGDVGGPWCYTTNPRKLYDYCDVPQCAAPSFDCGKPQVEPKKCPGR

Amount of drug required for tenfold increase of thrombin-time following dissolution of peptide, 0 hour [5] [µg/mL]	relative activity (ra), 20 hours [5]	Amount of drug required for tenfold increase of thrombin-time following dissolution of peptide, 20 hours [5] [µg/mL]	change of antithrombin potency upon standing in solution [5]	Compound	inhibition of plasmin [1]	inhibition of trypsin [2]	inhibition of papain [3]	antithrombin activity (literature) [4]	increase of thrombin-time in vivo [6]	further results
				CCC(=O)N[C@@H](CC(C)C)C(=O)N[C@@H](CC(C)C)C(=O)N[C@H](C=O)CCCNC(=N)N.Cl [propionyl-L-leucyl-L-leucyl-arginine aldehyde hydrochloride]	capable to inhibit	capable to inhibit	capable to inhibit			
				CC[C@H](C)[C@@H](NC(=O)c1ccccc1)C(=O)N1CCC[C@H]1C(=O)N[C@H](C=O)CCCNC(=N)N.Cc1ccc(S(=O)(=O)O)cc1 [benzoyl-D-allo-isoleucyl-L-prolyl-L-arginine aldehyde p-toluenesulfonate] (Bz-[d(aIle)]-Pro-Arg-aldehyde)				marked antithrombin activity		
				CC(=O)N[C@@H](CC(C)C)C(=O)N[C@@H](CC(C)C)C(=O)N[C@H](C=O)CCCNC(=N)N.Cl [acetyl-L-leucyl-L-leucyl-arginine aldehyde hydrochloride]	capable to inhibit	capable to inhibit	capable to inhibit			
0.35 to 0.95	5	6.0	reduced	Cl.N=C(N)NCCC[C@@H](C=O)NC(=O)[C@@H]1CCCN1C(=O)[C@H](N)Cc1ccccc1 [H--D-Phe-- Pro--Arg--H . 2HCl, D-phenylalanyl-L-prolyl-L-arginine aldehyde hydrochloride]					practically no influence	
0.37 to 1.25	4	6.2	reduced	CC(=O)O.N=C(N)NCCC[C@@H](C=O)NC(=O)[C@@H]1CCCN1C(=O)[C@H](N)Cc1ccccc1 [H--D-Phe-- Pro--Arg--H . 2 CH3 COOH, D-phenylalanyl-L-prolyl-L-arginine aldehyde acetate]				marked antithrombin activity	practically no influence	

Compound	Amount of drug required for tenfold increase of thrombin-time following dissolution of peptide, 0 hour [5] [µg/mL]	relative activity (ra), 20 hours [5]	Amount of drug required for tenfold increase of thrombin-time following dissolution of peptide, 20 hours [5] [µg/mL]	change of antithrombin potency upon standing in solution [5]	inhibition of plasmin [1]	inhibition of trypsin [2]	inhibition of papain [3]	antithrombin activity (literature) [4]	increase of thrombin-time in vivo [6]	further results
D-Phenylalanyl-L-prolyl-N^G -carboxyl-L-arginine aldehyde [H--D-Phe-- Pro--Arg(COOH)--H]	0.275	92	0.300						four to sixfold	relative activity (ra), 0 hour ([5]; 0 hour, activity of H-D-Phe-Pro-Arg(COOH)-H arbitrarily taken as 100): 100; antithrombin (enzyme inhibitory) activity compared with the free tripeptide aldehyde salt of corresponding sequence ([5]; thrombin-fibrinogen reaction, versus H-D-Phe-Pro-Arg-H hydrochloride or acetate): higher; in vivo antithrombin effect [7]: substantial
